Assay results: a melting point compilation (Tetko et al.)

SMILES	melting point [°C]
Cc1ccccc1OCc1nnc(S)[nH]1	110 to 112
C#CCn1cnc(-c2ccccc2)c1N	126 to 128
O=C1CCC(=O)N(c2ccc(C(=O)O)cc2)N1	248 to 250
CSc1ccc(C(=O)CCC(=O)O)cc1	152 to 154
CCCCn1c(N)cc(=O)n(C)c1=O	92 to 94
Sc1nnc(N2CCOCC2)s1	179 to 181
Cc1ccc(CNC(=O)n2ccnc2)cc1	132 to 134
CN(C)c1ccc(C2NCC(CCl)O2)cc1 (stereo not given)	104 to 106
Cc1nc(N)n(-c2ccc(C#N)cc2)n1	270 to 272
NCc1ccc(NC(=O)c2ccco2)cc1	102 to 104
O=C1C=CC(=O)N1c1cccc(C(F)(F)F)c1	67 to 69
CCc1nn(C)c(Cl)c1C=O	38 to 40
C1Cc2nn[nH]c2CN1	154 to 156
COc1c(C(=O)O)sc(C)c1Br	165 to 167
Cc1cc(C)c2c(N)c(C(=O)O)sc2n1	145 to 147
Cc1nc(-c2c[nH]c(C(=O)O)c2)cs1	209 to 211
NNC(=O)Nc1cc(F)cc(F)c1	176 to 178
ClCc1csc(COc2ccccc2)n1	49 to 51
O=S1(=O)C=CCC1	62 to 64
CC(C)CNC(N)=S	99 to 101

SMILES	melting point [°C]
O=C(O)C(c1ccccc1)C1CC1 (stereo not given)	84 to 86
O=C(O)Cn1c(=O)cnc2ccccc21	195 to 199
CC(Oc1ccccc1F)C(=O)NN (stereo not given)	64 to 66
CNc1ncccc1C#N	87 to 89
c1ccc(CC2CCN(c3ncnc4sccc34)CC2)cc1	124 to 126
O=C(O)CSCc1cscn1	98 to 100
CC(C)(C)OC(=O)NCCCN	22 to 24
CCOC(=O)c1c(-c2ccccc2)csc1N=CN(C)C	95 to 97
O=C(O)c1cnc(Cc2ccccc2)s1	199 to 201
O=C(O)CCCn1cc(Br)cn1	94 to 96
N#Cc1[nH]c(=O)n(Cc2ccccc2)c1NCc1ccccc1	140 to 142
CC(C)(C)CNc1cccnc1	62 to 64
O=C(O)Cn1nnc2ccccc21	210 to 212
O=C(O)CCc1ncc(-c2ccccc2)o1	148 to 150
CC(=O)Nc1ccc(OCC2CO2)cc1 (stereo not given)	117 to 119
Sc1ccc(-c2ccccc2)cc1	106 to 108
CC(N)C(=O)Nc1ccc(-n2cncn2)cc1 (stereo not given)	169 to 171
Cn1nc(C=O)cc1-c1cccs1	76 to 78
Nc1cc2c(cc1F)CCC(=O)N2	174 to 176
O=C(N/N=C/c1c(O)ccc2ccccc12)c1ccncc1	266 to 268

The next lines start with the values.

melting point [°C]	SMILES
191 to 193	COc1ccc(CNC(N)=S)cc1OC
110 to 114	CCS(=O)(=O)N1Cc2ccccc2CC1C(=O)O (stereo not given)
97 to 99	Nc1cc(CO)ccc1Cl
240 to 242	O=C(O)CCNC(=O)c1ccc2[nH]ncc2c1
95 to 97	COC(=O)NCc1ccc(N)cc1
116 to 118	CS(=O)(=O)C(Cc1ccccc1)C(=O)O (stereo not given)
104 to 106	O=C(/C=C/c1ccccc1)c1ccc(Br)cc1
124 to 126	O=Cc1c(Cl)nc2ccccn12
149 to 151	O=c1cc(CCl)nc2ccc(Cl)cn12
224 to 226	Cc1cc(Br)cc2c1NC(=O)C2
85 to 87	ClCc1ncc(-c2ccccc2Br)o1
92 to 96	COC(=O)c1c(-c2ccccc2Cl)csc1N
98 to 100	CS(=O)(=O)Nc1ccc(Br)cc1Cl
161 to 163	Cc1noc(-c2ccc(N)c(C)c2)n1
96 to 98	Cc1ccc(CC(=O)O)cc1C
48 to 50	CCOC(=O)c1ccc(S(=O)(=O)Cl)c(Br)c1
110 to 112	COCCC(=O)Nc1ccc(F)cc1C(=O)O
120 to 122	O=C(O)c1cc(Br)ccc1I
228 to 230	Nc1nc2cc(Cl)cc(Br)c2o1
71 to 72	CCOc1cc(Br)c(C=O)cc1OCC
